Results on twelve compounds are retold here after patent US10604526B2, “Chemokine receptor modulators and uses thereof” (RAPT THERAPEUTICS, INC., priority 2016, dated 2020).

Bounds are passed on as bounds.

By IC50 is commonly meant the point on the concentration scale where inhibition reaches its midpoint.

In this assay the target is T1, hCCR4 (Homo sapiens, UniProt P51679).
T1 sequence (P51679 1-360): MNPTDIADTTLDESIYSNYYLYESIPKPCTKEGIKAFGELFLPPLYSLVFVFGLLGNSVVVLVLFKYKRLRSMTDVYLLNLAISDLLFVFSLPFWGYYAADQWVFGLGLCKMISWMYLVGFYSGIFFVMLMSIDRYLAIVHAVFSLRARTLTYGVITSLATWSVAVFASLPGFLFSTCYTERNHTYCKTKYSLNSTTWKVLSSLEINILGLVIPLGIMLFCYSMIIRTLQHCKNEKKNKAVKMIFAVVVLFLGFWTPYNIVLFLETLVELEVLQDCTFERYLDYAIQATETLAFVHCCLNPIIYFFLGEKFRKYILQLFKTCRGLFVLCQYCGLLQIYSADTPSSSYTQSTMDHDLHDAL
The assay is described as follows: Calcium flux assay. Type of assay: cell-based. The settings on record: Chem5-hCCR4 cells, CCL22 at EC80 of 1.5 nM, FLIPR Calcium 6 dye; read-out: Potency (IC50). The method in brief:
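Chem5 cells expressing hCCR4 were serum-starved for 2 h, loaded with Calcium 6 dye plus 2.5 mM probenecid, then given compound for 1 h at 37 °C (0.5% DMSO). CCL22 was added from a 7.5 nM working solution (5× EC80 of 1.5 nM). IC50 came from ΔF/Fmin (485/525 nm) by 4-parameter fit.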
(Calcium flux is commonly read through the fluorescence of an indicator in the cells.)

Take `C[C@H](c1ccc(Cl)cc1Cl)n1nc(C#N)c2ncc(N3CC([C@H]4CCCN(Cc5cnc[nH]5)C4)C3)nc21` (single isomer, unassigned) [Example 112]: the 50% inhibitory concentration (IC50) was less than 0.1 µM.

`C[C@H](c1ccc(Cl)cc1Cl)n1nc(C#N)c2ncc(N3CC([C@H]4CCCN(CCC(N)=O)C4)C3)nc21` (single isomer, unassigned) [Example 26]: the IC50 was less than 0.1 µM. The result for `CC(C)C(=O)NCCN1CCC[C@@H](C2CN(c3cnc4c(C(F)(F)F)nn([C@H](C)c5ccc(Cl)cc5Cl)c4n3)C2)C1` (single isomer, unassigned) [Example 51] reads 0.1 to 0.5 µM. For the compound `CCOC(=O)CN1CCCC(C2CN(c3cnc4c(C)nn([C@H](C)c5ccc(Cl)cc5Cl)c4n3)C2)C1` (mixture of isomers) [Example 1, Ethyl 2-((R)-3-(1-(1-((R)-1-(2,4-dichlorophenyl)ethyl)-3-methyl-1H-pyrazolo[3,4-b]pyrazin-6-yl)azetidin-3-yl)piperidin-1-yl)acetate 2,2,2-trifluoroacetate and 2,2,2-trifluoroacetate ethyl 2-((S)-3-(1-(1-((R)-1-(2,4-dichlorophenyl)ethyl)-3-methyl-1H-pyrazolo[3,4-b]pyrazin-6-yl)azetidin-3-yl)piperidin-1-yl)acetate], the IC50 is greater than 0.5 µM. Turning to `C[C@H](c1ccc(Cl)cc1Cl)n1nc(C#N)c2ncc(N3CC(C4CCCN(Cc5c[nH]cn5)C4)C3)nc21` (mixture of isomers) [Example 60, 6-(3-((S)-1-(1H-imidazol-4-yl)methyl)piperidin-3-yl)azetidin-1-yl)-1-((R)-1-(2,4-dichlorophenyl)ethyl)-1H-pyrazolo[3,4-b]pyrazine-3-carbonitrile and 6-(3-((R)-1-((1H-imidazol-4-yl)methyl)piperidin-3-yl)azetidin-1-yl)-1-((R)-1-(2,4-dichlorophenyl)ethyl)-1H-pyrazolo[3,4-b]pyrazine-3-carbonitrile], the IC50 was less than 0.1 µM. For the compound “4-((S)-3-(1-(1-((R)-1-(2,4-Dichlorophenyl)ethyl)-3-methyl-1H-pyrazolo[3,4-b]pyrazin-6-yl)azetidin-3-yl)piperidin-1-yl)butanoic acid and 4-((R)-3-(1-(1-((R)-1-(2,4-dichlorophenyl)ethyl)-3-methyl-1H-pyrazolo[3,4-b]pyrazin-6-yl)azetidin-3-yl)piperidin-1-yl)butanoic acid [Example 17]”, the half-maximal inhibitory concentration (IC50) was less than 0.1 µM. For `Cc1nn([C@H](C)c2ccc(Cl)cc2Cl)c2nc(N3CC([C@H]4CCCN(CCCO)C4)C3)cnc12` (single isomer, unassigned) [Example 14], the concentration for half-maximal inhibition (IC50) was less than 0.1 µM. As to `Cc1nn([C@H](C)c2ccc(Cl)cc2Cl)c2nc(N3CC([C@@H]4CCCN(CCS(N)(=O)=O)C4)C3)cnc12` (single isomer, unassigned) [Example 5], the IC50 was greater than 0.5 µM.

As to `Cc1nn([C@H](C)c2ccc(Cl)cc2Cl)c2nc(N3CC([C@@H]4CCCN(CCCC(=O)O)C4)C3)cnc12` (single isomer, unassigned) [Example 11], the IC50 was 0.1 to 0.5 µM. As for `Cc1nn([C@H](C)c2ccc(Cl)cc2Cl)c2nc(N3CC(C4CCCN(CCC(=O)O)C4)C3)cnc12` (mixture of isomers) [Example 7, 3-((S)-3-(1-(1-((R)-1-(2,4-Dichlorophenyl)ethyl)-3-methyl-1H-pyrazolo[3,4-b]pyrazin-6-yl)azetidin-3-yl)piperidin-1-yl)propanoic acid and 3-((R)-3-(1-(1-((R)-1-(2,4-dichlorophenyl)ethyl)-3-methyl-1H-pyrazolo[3,4-b]pyrazin-6-yl)azetidin-3-yl)piperidin-1-yl)propanoic acid], the IC50 lay in the range of 0.1 to 0.5 µM. `C[C@H](c1ccc(Cl)cc1Cl)n1nc(C#N)c2ncc(N3CC(C4CCCN(CCC(N)=O)C4)C3)nc21` (mixture of isomers) [Example 24, 3-((S)-3-(1-(3-Cyano-1-((R)-1-(2,4-dichlorophenyl)ethyl)-1H-pyrazolo[3,4-b]pyrazin-6-yl)azetidin-3-yl)piperidin-1-yl)propanamide and 3-((R)-3-(1-(3-cyano-1-((R)-1-(2,4-dichlorophenyl)ethyl)-1H-pyrazolo[3,4-b]pyrazin-6-yl)azetidin-3-yl)piperidin-1-yl)propanamide]: the half-inhibitory concentration (IC50) is less than 0.1 µM.

Regarding `COC(=O)NCCN1CCCC(C2CN(c3cnc4c(C)nn([C@H](C)c5ccc(Cl)cc5Cl)c4n3)C2)C1` (mixture of isomers) [Example 67, Methyl (2-((R)-3-(1-(1-((R)-1-(2,4-dichlorophenyl)ethyl)-3-methyl-1H-pyrazolo[3,4-b]pyrazin-6-yl)azetidin-3-yl)piperidin-1-yl)ethyl)carbamate and methyl (2-((S)-3-(1-(1-((R)-1-(2,4-dichlorophenyl)ethyl)-3-methyl-1H-pyrazolo[3,4-b]pyrazin-6-yl)azetidin-3-yl)piperidin-1-yl)ethyl)carbamate], the IC50 is less than 0.1 µM.
